Results on five molecules are retold here after patent US5525503A, “Signal transduction via CD28” (priority 1993, dated 1996).

For one series, the system named is CD28 signalling. To be noted: cited from earlier work.
Series [1] deals with association of PI 3-kinase with CD28 (Homo sapiens, UniProt P27986). As to the kind of experiment: Peptide competition: displacement of PI 3-kinase from CD28 (anti-CD28 immunoprecipitation, anti-p85 immunoblotting). The class given is binding. Particulars: peptide 10-50 μM; longer exposure of autoradiograph. For orientation: A western blot detects proteins with antibodies after separation by electrophoresis.
Chain of association of PI 3-kinase with CD28 (P27986 whole entry): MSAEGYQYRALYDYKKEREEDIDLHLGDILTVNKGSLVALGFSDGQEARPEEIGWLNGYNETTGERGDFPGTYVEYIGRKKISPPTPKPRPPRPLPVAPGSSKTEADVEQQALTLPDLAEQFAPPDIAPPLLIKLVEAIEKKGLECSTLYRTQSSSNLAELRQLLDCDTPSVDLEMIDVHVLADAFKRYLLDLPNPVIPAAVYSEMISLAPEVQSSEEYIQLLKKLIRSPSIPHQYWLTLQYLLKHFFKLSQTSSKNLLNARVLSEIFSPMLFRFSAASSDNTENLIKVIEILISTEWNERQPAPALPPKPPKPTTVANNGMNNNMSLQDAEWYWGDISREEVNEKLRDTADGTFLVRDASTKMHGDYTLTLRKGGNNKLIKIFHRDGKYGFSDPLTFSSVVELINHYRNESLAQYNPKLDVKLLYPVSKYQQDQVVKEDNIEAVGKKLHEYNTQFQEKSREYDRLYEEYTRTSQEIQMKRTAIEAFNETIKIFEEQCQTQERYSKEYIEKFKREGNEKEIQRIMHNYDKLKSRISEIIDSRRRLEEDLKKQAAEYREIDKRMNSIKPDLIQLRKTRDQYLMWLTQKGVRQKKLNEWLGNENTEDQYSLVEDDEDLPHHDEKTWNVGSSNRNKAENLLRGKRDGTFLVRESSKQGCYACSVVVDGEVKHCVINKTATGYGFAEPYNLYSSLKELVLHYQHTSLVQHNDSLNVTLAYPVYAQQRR

The test system of the next series is PI 3-kinase. The series can be described thus: CD28-associated PI 3-kinase lipid kinase activity of CD28 mutants in transfected Cos-1 cells after anti-CD28 crosslinking (TLC, laser densitometry). It counts as cell-based. To be noted: relative to wild type CD28. The source says: FIG. 8 is a photograph of TLC analysis of lipid products following CD28 crosslinking. Cos-1 cells were transfected with wild type CD28 (WT) (lane 2), Tyr-191 to Phe mutant (F191) (lane 3), Met-194 to Cys (C194) (lane 4), and Tyr-209 to Phe (F209) (lane 5). Transfected cells were then subjected to anti-CD28 crosslinking, immunoprecipitation and lipid kinase analysis. Non-transfected cells served as a negative control (lane 1), while immunoprecipitation with anti-p85 antibody served as a positive control (lane 6).
FIG. 9 is a bar graph showing relative autoradiographic intensities of PI-P spots detected in the TLC analysis shown in FIG. 8. Intensity was quantitated by laser densitometric scanning.
The lipid kinase reaction was carried out on beads using soybean phosphatidyl inositol liposomes and γ32P-ATP (20 μCi). Lipids were then extracted using chloroform and methanol (1:1) and separated by thin layer chromatography on a silica gel plate precoated with potassium oxalate using a basic system (chloroform, methanol, water, ammonium hydroxide (60:47:11.3:2), as described in Whitman et al., supra and Auger et al., supra. The corresponding TLC spots were cut, counted for Cherenkov counts and extracted with a solution containing methylamine, methanol and n-butanol (57.7 ml of 25% methylamine in water, 61.6 ml of methanol and 15.6 ml of n-butanol) for 1 h at 53° C. This method also results in the deacylation of lipids. The samples were dried under vacuum and reconstituted in water. […] The deacylated phospholipids were analyzed on a Beckman HPLC system using an ion exchange column and a gradient of NH4 HPO4. ^3 H-PI-4P and adenosine diphosphate were used as internal standards.
Amino acid residues at positions Tyr-191, Met-194 and Tyr-209 were mutated using a site-directed mutagenesis system from Promega (Madison, Wis.). […] Cells were assessed for cell surface expression of CD28 by fluorescence-activated cell sorting (FACS) (EPICS, Coulter Immunology, Hialeah, Fla.). […]

In the case of `C=CC[C@@H]1/C=C(\C)C[C@H](C)C[C@H](OC)[C@H]2O[C@@](O)(C(=O)C(=O)N3CCCC[C@H]3C(=O)O[C@H](/C(C)=C/[C@@H]3CC[C@@H](O)[C@H](OC)C3)[C@H](C)[C@@H](O)CC1=O)[C@H](C)C[C@@H]2OC` [FK506], in the series with CD28 signalling, the “sensitivity of CD28 signalling to the reagent” value was “resistant”. For the molecule `CSCC[C@H](NC(=O)[C@@H]1CCCN1C(=O)[C@H](CCSC)NC(=O)[C@H](Cc1ccc(OP(=O)(O)O)cc1)NC(=O)[C@H](CCC(=O)O)NC(=O)[C@H](CCC(=O)O)NC(=O)[C@@H](N)CCC(=O)O)C(=O)N[C@@H](CCC(=O)O)C(=O)N[C@@H](CC(=O)O)C(=O)N[C@@H](CC(C)C)C(=O)N[C@@H](Cc1ccc(O)cc1)C(=O)N[C@@H](CC(C)C)C(=O)O` [Glu-Glu-Glu-Tyr-Met-Pro-Met-Glu-Asp-Leu-Tyr-Leu], the “reduction of the level of CD28-associated p85 PI 3-kinase” value in series [1] is reported as 60-80%. For the molecule “C194: CD28 with Met-194 mutated to Cys by site-directed mutagenesis”, in the series on PI 3-kinase, the “effect of CD28 mutation on associated PI 3-kinase (TLC, in words)” value is on record as “partial effect in reducing the level of associated kinase” and the “reduction of CD28-associated PI 3-kinase activity (laser densitometry of PI-P spots)” value is recorded as “approximately 40%”. Turning to “F209: CD28 with distal Tyr-209 mutated to Phe, control mutant”, the “effect of CD28 mutation on associated PI 3-kinase (TLC, in words)” value in the series with PI 3-kinase is “no effect relative to the wild type control”. Take cholera toxin: the “sensitivity of CD28 signalling to the reagent” value in the series with CD28 signalling was “resistant”.
